Laboratory results taken from article PMC9046087, “Structural basis of tethered agonism of the adhesion GPCRs ADGRD1 and ADGRF1” (Nature, 2022).
Substitutions are numbered along the chain they refer to. Ends that are not written are not given here.

Columns and labels:
Assay in all cases: BRET assay using TRUPATH biosensors, Gi activation of ADGRF1
Format in all cases: cell-based
ADGRF1 [1] = target: T1, ADGRF1 (Homo sapiens, UniProt Q5T601, T589A); conditions: ADGRF1 T589^1.40bA
T1 construct: Flag (N); expressed in transfected cells; host or cells: HEK293F
Outline: (§1)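 G protein activation by synthetic stalk peptides, read as GFP2-to-RLuc8 emission ratio from the fifth of five successive readings. Cells: HEK293F expressing receptor (WT or mutant) with GαsS-RLuc8 or Gαi1-RLuc8 plus Gβ3 and Gγ9-GFP2 (2:1:1:1). Pre-incubated 30 min at 37 °C; substrate coelenterazine 400a.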

ADGRF1 [2] = target: T2, ADGRF1 (Homo sapiens, UniProt Q5T601, F690A); conditions: ADGRF1 F690^ICL2A
T2 construct: Flag (N); expressed in transfected cells; host or cells: HEK293F
T2 sequence (Q5T601 20-910 F690A): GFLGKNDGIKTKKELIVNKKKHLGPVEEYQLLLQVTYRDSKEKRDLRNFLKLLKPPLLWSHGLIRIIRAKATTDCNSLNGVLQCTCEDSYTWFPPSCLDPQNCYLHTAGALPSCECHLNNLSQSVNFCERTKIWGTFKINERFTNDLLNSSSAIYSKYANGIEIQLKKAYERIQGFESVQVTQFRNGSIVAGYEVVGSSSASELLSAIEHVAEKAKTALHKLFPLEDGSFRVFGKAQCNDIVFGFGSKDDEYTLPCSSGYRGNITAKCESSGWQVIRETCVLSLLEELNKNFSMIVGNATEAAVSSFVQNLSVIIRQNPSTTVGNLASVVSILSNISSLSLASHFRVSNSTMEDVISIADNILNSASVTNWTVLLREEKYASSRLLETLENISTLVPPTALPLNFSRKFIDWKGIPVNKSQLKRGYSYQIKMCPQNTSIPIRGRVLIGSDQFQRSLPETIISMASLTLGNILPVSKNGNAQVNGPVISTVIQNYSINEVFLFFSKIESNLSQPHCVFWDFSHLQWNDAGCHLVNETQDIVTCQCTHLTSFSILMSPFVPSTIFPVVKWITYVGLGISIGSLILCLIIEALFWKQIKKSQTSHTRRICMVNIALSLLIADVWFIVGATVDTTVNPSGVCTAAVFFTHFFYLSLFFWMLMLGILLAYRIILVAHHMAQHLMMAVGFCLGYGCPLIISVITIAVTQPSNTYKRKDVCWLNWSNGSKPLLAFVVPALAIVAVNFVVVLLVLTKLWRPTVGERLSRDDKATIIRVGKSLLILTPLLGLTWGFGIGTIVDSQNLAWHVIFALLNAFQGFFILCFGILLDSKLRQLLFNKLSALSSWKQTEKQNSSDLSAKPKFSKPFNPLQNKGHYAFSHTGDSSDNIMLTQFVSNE
Outline: as §1

ADGRF1 [3] = target: T3, ADGRF1 (Homo sapiens, UniProt Q5T601, M675A); conditions: ADGRF1 M675^3.47bA
T3 construct: Flag (N); expressed in transfected cells; host or cells: HEK293F
Outline: as §1

ADGRF1 [4] = target: T4, ADGRF1 (Homo sapiens, UniProt Q5T601, L799A); conditions: ADGRF1 L799^6.48bA
T4 construct: Flag (N); expressed in transfected cells; host or cells: HEK293F
Outline: as §1

ADGRF1 [5] = target: T5, ADGRF1 (Homo sapiens, UniProt Q5T601, V765A); conditions: ADGRF1 V765^5.57bA
T5 construct: Flag (N); expressed in transfected cells; host or cells: HEK293F
Outline: as §1

ADGRF1 [6] = target: T6, ADGRF1 (Homo sapiens, UniProt Q5T601, F747A); conditions: ADGRF1 F747^5.36bA, n = 3
T6 construct: Flag (N); expressed in transfected cells; host or cells: HEK293F
Outline: as §1

ADGRF1 [7] = target: T7, ADGRF1 (Homo sapiens, UniProt Q5T601, V689A); conditions: ADGRF1 V689^ICL2A
T7 construct: Flag (N); expressed in transfected cells; host or cells: HEK293F
T7 sequence (Q5T601 20-910 V689A): T2 sequence (Q5T601 20-910 F690A) with V670A, A671F
Outline: as §1

[8] = n = 3, read-out: pEC50 (mean ± s.e.m.) (converted)

T6 sequence (Q5T601 20-910 F747A): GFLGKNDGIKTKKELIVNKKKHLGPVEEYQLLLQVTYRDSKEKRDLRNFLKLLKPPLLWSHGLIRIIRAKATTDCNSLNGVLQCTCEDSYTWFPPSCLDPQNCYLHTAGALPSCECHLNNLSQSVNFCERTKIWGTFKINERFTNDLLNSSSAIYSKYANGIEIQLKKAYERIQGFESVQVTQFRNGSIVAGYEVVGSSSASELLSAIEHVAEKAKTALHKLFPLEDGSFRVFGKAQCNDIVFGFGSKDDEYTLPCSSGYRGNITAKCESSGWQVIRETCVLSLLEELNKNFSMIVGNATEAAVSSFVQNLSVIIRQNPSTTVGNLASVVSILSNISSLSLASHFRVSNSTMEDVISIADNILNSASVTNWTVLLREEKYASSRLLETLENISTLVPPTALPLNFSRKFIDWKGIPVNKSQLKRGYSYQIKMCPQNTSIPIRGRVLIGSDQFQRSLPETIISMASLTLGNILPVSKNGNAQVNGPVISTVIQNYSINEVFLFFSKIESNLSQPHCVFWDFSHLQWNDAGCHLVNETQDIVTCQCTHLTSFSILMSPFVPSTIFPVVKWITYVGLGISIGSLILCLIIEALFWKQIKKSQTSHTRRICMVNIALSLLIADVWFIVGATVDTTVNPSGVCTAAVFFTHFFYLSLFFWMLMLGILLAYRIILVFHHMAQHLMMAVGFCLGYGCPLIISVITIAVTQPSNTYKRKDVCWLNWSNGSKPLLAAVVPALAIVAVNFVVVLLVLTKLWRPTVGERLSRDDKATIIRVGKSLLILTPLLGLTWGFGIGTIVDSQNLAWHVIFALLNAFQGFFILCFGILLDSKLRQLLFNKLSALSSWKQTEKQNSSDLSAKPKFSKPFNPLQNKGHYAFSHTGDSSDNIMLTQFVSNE
T1 sequence (Q5T601 20-910 T589A): as the sequence (Q5T601 20-910 F747A) above, with T570A, A728F counted along it
T4 sequence (Q5T601 20-910 L799A): as the sequence (Q5T601 20-910 F747A) above, with A728F, L780A counted along it
T3 sequence (Q5T601 20-910 M675A): as the sequence (Q5T601 20-910 F747A) above, with M656A, A728F counted along it
T5 sequence (Q5T601 20-910 V765A): as the sequence (Q5T601 20-910 F747A) above, with A728F, V746A counted along it

Emax (mean ± s.e.m.) (ADGRF1 [1]; n = 3): 114 ± 13 % of WT | EC50 (ADGRF1 [1]; [8]): 87.1 nM | Emax (mean ± s.e.m.) (ADGRF1 [2]; n = 3): 94 ± 15 % of WT | EC50 (ADGRF1 [2]; [8]): 79.4 nM | Emax (mean ± s.e.m.) (ADGRF1 [3]; n = 3): 81 ± 13 % of WT | EC50 (ADGRF1 [3]; [8]): 427 nM | Emax (mean ± s.e.m.) (ADGRF1 [4]; n = 3): 109 ± 11 % of WT | EC50 (ADGRF1 [4]; [8]): 380 nM | Emax (mean ± s.e.m.) (ADGRF1 [5]; n = 3): 92 ± 16 % of WT | EC50 (ADGRF1 [5]; [8]): 912 nM | EC50 (ADGRF1 [6]): 1220 nM | Emax (mean ± s.e.m.) (ADGRF1 [6]): 80 ± 13 % of WT | Emax (mean ± s.e.m.) (ADGRF1 [7]; n = 3): 67 ± 7 % of WT | EC50 (ADGRF1 [7]; [8]): 263 nM
Sequence: TSFSILMSPFVP [pF1]
